One data set concerns HCT116 tumor organoids. Briefly: Tumor organoid cytotoxicity (CellTiter-Glo 3D). The note with it: Homo sapiens. The class given is cell-based, human. The protocol: Cell based cytotoxicity dose response and combination studies. […] Plates were then incubated for 3 days before treatment.
Cell Line Tumor Organoid Culture.
Tumor Organoid Cytotoxicity.
For orientation: In ATP-based viability assays light output follows the ATP content of the culture.

A short description of data set [1]: Mouse liver microsome stability. The note with it: CD-1, mouse, liver microsomes; for half-life: female, initial study. In general terms: Microsomes from liver hold many membrane-bound enzymes, among them those of drug oxidation.
Experimental: Microsome stability. CD-1 mouse microsomes were commercially purchased and the reactions were performed as previously described. […] The master mix was pre-incubated at 37° C. for 5 min, then 1 mM NADPH was added to start the microsomal activity reaction and maintained at 37° C. throughout the time course. Reactions were stopped at 0, 5, 15, 30, 45, and 60 min by adding 200 μL acetonitrile and analyzed by mass spectrometry. The appropriate microsome controls were also performed in the same reaction conditions.
A further data set deals with T1, cat-CHD1L ATPase (Homo sapiens, UniProt Q86WJ1).
T1 construct: inferred from Ni-NTA / imidazole purification; made in house; host or cells: E. coli Rosetta 2 (DE3) pLysS; constructs were a gift from Helena Berglund, Karolinska Institute
T1 sequence (Q86WJ1 16-611 limits assumed): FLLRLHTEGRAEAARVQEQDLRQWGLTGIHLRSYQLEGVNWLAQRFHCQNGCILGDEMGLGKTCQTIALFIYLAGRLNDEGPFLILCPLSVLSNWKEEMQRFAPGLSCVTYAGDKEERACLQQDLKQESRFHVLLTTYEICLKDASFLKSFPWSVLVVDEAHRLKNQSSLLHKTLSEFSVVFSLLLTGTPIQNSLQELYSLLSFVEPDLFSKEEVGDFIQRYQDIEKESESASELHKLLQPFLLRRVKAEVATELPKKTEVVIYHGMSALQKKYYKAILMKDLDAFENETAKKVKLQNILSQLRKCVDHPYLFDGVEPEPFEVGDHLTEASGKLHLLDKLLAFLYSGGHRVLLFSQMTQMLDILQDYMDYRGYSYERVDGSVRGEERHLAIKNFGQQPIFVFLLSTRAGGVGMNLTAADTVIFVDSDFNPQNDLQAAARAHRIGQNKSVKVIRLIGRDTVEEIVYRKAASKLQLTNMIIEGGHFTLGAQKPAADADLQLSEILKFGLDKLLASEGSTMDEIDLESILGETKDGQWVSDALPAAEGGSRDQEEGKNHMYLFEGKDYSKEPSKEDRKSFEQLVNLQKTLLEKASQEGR
The data set can be described thus: CHD1L ATPase assay with recombinant catalytic domain (cat-CHD1L). The data set is classed as biochemical. Particulars: for inhibition at 20 µM: confirmed HTS hits, HTS at 20 μM, read-out: inhibition against cat-CHD1L ATPase; for IC50: units given with the values (nM, μM), read-out: activity in dose response studies against cat-CHD1L ATPase (IC50, FIG. 1A). The procedure, abridged: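 Recombinant cat-CHD1L (100 nM) was incubated with 200 nM c-Myc DNA or mononucleosome in 50 mM Tris pH 7.5, 50 mM NaCl, 1 mM DTT and 5% glycerol, with 10 μM ATP, for 1 h at 37 °C. Background came from no-enzyme wells, with 1% DMSO and 10 mM EDTA as controls.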

Data set [2] concerns CRC042 patient-derived tumor organoids. The data set can be described thus: Patient tumor organoid cytotoxicity. The class given is cell-based. Particulars: Homo sapiens; single agent, Table 4A.
Data set [3] can be described thus: Aqueous solubility in PBS. The data set is classed as physicochemical. The note with it: aqueous with cosolvent or surfactant or cyclodextrin; 10% DMSO in PBS (pH 7.4). The protocol:
The measurement of solubility in PBS was conducted in duplicate experiments. The consensus LogP (CLogP) values were obtained using the SwissADME web tools. [Daina et al., 2017]

A further data set concerns SW620 tumor organoids. The data set can be described thus: Western blot of treated SW620 tumor organoids. The data set is classed as cell-based, human. The method, then: CRC cell lines and homogenized tumor tissue samples from mice were resuspended in RIPA lysis buffer (20 mM Tris-HCl (pH 7.5), 150 mM NaCl, 1 mM Na2EDTA, 1 mM EGTA, 1% NP-40, 1% sodium deoxycholate, 2.5 mM sodium pyrophosphate, 1 mM b-glycerophosphate, 1 mM Na3VO4, 0.1 mM PMSF. Protein concentration was determined using the Pierce™ BCA protein assay kit (ThermoFisher, Waltham, Mass.). Forty micrograms of sample were run on 10% Bis-Tris gels. Following electrophoresis, the proteins were transferred to a nitrocellulose membrane. The membranes were blocked at room temperature with 5% non-fat milk in TBS/Tween® 20 (TBST contains 20 mM Tris, 150 mM NaCl, and 0.1% Tween®20 (Croda International PLC, Snaith, UK) for 1 hour at room temperature. Membranes were washed three times with TBST. Blots were incubated with the appropriate primary antibody in 5% nonfat milk in TBST overnight at 4° C. Membranes were washed three times with TBST and then incubated with appropriate secondary antibody for one hour. Membranes were washed again with TBST three times. Blots were exposed using SuperSignal™West Pico PLUS Chemiluminescent Substrate (ThermoFisher, Waltham, Mass.) and imaged using a ChemiDoc imaging system (Bio-Rad, Hercules, Calif.). [See: Abbott et al., 2020 and its Supplementary Information for Western Blots]
(In western blotting, separated proteins are transferred to a membrane and probed.)

[4] abbreviates: HCT-116, single agent, Table 4A, read-out: Tumor Organoid Cytotoxicity IC50 (μM) HCT116.

The source of these data is patent publication US20230103444A1 (The Regents of the University of Colorado, a Body Corporate, priority 2020, published 2023).

Values after ≈ are worked out from the molar mass of the structure shown. Where two headings read alike, the source gives them in different places.

What is called IC50 is the concentration at which inhibition is half-maximal. The term half-life denotes the time needed for the level to fall by half in the phase considered. Read a high half-life as slow loss. For the compound `Cc1cc(Nc2ccc(NC(=O)c3c[nH]c4ccccc34)cc2)nc(N2CCCC2)n1` [Compound 6.3, N-(4-((6-methyl-2-(pyrrolidin-1-yl)pyrimidin-4-yl)amino)phenyl)-1H-indole-3-carboxamide], the IC50 is 3.7 µM with HCT116 tumor organoids (HCT-116, 72 h, Table 6, read-out: 3 D Cytotoxicity 72 hr IC50 (μM) HCT116) and 3.72 µM in the data set with HCT116 tumor organoids (setting [4]). In addition, the half-life at 10 μM in data set [1] (pH 7.4, in vitro liver microsome half-life, second series, different liver microsome preparation) was determined as 98 min.

By inhibition is commonly meant the drop in the measured response relative to a control, in per cent. As usually defined, the solubility is the dissolved amount per volume that the medium holds. In the case of `Cc1cc(Nc2ccc(NC(=O)Cc3cccs3)cc2)nc(N2CCCC2)n1` [Compound 6, N-(4-((6-methyl-2-(pyrrolidin-1-yl)pyrimidin-4-yl)amino)phenyl)-2-(thiophen-2-yl)acetamide], the inhibition at 20 µM on cat-CHD1L ATPase was greater than 50%. Moreover, the values for the 50% inhibitory concentration (IC50) (at cat-CHD1L ATPase; in data set [2]; in the data set on HCT116 tumor organoids (setting [4])) were 900 to 5000 nM, 18.6 µM and 4.93 µM, respectively. Moreover, the solubility in data set [3] came out at 700 µg/mL (≈ 1780 µM). Further, the “E-cadherin cleavage (marker of apoptosis)” value in the data set on SW620 tumor organoids is “E-cadherin is cleaved”. The “cleaved PARP1, cleaved caspase 8 and cleaved caspase 3” value in the data set on SW620 tumor organoids (relative to DMSO control) is “increases in cleaved PARP1, cleaved caspase 8, and cleaved caspase 3”. Further, the half-life is 17 min in data set [1] (Microsomal Half-life (min), female CD-1 mouse microsomes) and less than 20 min in data set [1] (half-life in liver microsomes).

Consider `COc1ccc(-c2nc(S(=O)(=O)c3ccccc3)c(S(C)(=O)=O)o2)cc1` [Compound 5], for which, on cat-CHD1L ATPase, the inhibition at 20 µM is greater than 50% and the half-maximal inhibitory concentration (IC50) is 900 to 5000 nM. Besides, the “E-cadherin cleavage (marker of apoptosis)” value in the data set on SW620 tumor organoids is on record as “E-cadherin is cleaved”.
